The values that follow come from ChEMBL document CHEMBL2073771, “Dibenzocyclooctadiene lignans: a class of novel inhibitors of multidrug resistance-associated protein 1” (Life Sci, 2006).

Format in all cases: functional, cell-based
Assay [1] concerns the target T1, Multidrug resistance-associated protein 1 (Homo sapiens, UniProt P33527). In words: TP_TRANSPORTER: inhibition of DNR transport in HL60/MRP cells.
For assay [2], the target named is T1, Multidrug resistance-associated protein 1. In words: TP_TRANSPORTER: inhibition of VP-16 transport in HL60/MRP cells.
Assay [3] has the same target. In words: TP_TRANSPORTER: inhibition of VCR transport in HL60/MRP cells.
Assay [4] shares this target. The assay is described as follows: TP_TRANSPORTER: inhibition of VP-16 transport in HL60/ADR cells (overexpression of MRP1).
For assay [5] the target is unchanged. In words: TP_TRANSPORTER: inhibition of DNR transport in HL60/ADR cells (overexpression of MRP1).
Assay [6] shares this target. The assay is described as follows: TP_TRANSPORTER: inhibition of VCR transport in HL60/ADR cells (overexpression of MRP1).

Structures are written as SMILES.

T1 sequence (P33527 whole entry): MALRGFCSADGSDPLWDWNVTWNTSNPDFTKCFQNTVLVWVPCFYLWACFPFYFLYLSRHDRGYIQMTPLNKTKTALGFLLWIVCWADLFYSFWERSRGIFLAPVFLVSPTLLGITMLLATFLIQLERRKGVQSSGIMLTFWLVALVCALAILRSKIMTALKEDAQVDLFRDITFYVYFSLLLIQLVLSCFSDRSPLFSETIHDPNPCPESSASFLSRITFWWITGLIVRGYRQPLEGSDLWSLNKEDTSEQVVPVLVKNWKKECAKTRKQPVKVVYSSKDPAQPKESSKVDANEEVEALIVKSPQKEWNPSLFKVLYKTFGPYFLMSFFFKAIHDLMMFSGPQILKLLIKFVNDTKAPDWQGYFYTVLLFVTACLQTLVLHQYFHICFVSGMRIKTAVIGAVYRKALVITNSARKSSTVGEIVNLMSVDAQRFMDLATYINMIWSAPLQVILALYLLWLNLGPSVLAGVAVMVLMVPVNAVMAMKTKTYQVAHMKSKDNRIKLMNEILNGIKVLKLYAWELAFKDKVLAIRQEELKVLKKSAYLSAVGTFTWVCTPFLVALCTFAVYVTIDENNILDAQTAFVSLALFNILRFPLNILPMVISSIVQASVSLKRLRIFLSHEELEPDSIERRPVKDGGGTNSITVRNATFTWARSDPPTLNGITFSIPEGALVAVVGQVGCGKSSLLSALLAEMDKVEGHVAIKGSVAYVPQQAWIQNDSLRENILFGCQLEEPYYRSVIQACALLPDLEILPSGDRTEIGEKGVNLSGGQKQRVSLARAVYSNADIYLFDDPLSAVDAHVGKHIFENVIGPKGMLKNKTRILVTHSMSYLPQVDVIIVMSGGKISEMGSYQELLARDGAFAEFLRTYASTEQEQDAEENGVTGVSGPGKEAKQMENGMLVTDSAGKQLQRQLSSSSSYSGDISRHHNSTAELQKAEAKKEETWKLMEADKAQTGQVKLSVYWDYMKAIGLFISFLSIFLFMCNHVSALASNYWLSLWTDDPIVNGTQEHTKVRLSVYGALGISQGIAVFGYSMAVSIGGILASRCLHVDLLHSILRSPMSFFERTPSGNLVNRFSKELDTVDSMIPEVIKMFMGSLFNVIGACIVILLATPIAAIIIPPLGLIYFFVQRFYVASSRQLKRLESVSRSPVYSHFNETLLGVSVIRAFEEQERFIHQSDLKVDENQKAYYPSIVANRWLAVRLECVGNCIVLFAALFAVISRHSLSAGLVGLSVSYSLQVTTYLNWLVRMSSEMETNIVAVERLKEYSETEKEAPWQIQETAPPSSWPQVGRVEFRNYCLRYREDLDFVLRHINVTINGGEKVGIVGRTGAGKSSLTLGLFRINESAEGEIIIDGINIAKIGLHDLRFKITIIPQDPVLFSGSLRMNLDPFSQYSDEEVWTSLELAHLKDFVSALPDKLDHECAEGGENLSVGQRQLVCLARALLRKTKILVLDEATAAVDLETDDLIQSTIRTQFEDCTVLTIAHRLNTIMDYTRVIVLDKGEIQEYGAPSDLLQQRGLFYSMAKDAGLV

The IC50 is the concentration that gives 50% inhibition. With `COc1cc2c(c(OC)c1OC)-c1c(cc3c(c1OC)OCO3)C[C@H](C)[C@@](C)(O)C2` [GOMISIN A], the half-inhibitory concentration (IC50) in assay [1] is 182 nM; in assay [2], 2760 nM; in assay [3] it was 9.36 nM; in assay [4], 7770 nM; in assay [5] it was 122 nM; in assay [6], 0.96 nM.

For `COc1cc2c(c(OC)c1OC)-c1c(cc(OC)c(OC)c1OC)C[C@](C)(O)[C@@H](C)C2` [SCHIZANDRIN], the half-maximal inhibitory concentration (IC50) in assay [1] is 217 nM; in assay [2], 3240 nM; in assay [3], 8.09 nM; in assay [4], 7250 nM; in assay [5] it was 125 nM; in assay [6] it was 1.16 nM.

In the case of `COc1cc2c(c(OC)c1OC)-c1c(cc3c(c1OC)OCO3)CC(C)C(C)C2` (centres undefined) [SCHISANDRIN B], the IC50 in assay [1] was 205 nM; in assay [2] it was 2250 nM; in assay [3], 9.49 nM; in assay [4], 4190 nM; in assay [5], 140 nM; in assay [6], 1.25 nM.

Turning to `COc1cc2c(c(OC)c1OC)-c1c(cc(OC)c(OC)c1OC)C[C@H](C)[C@H](C)C2` [SCHISANDRIN A], the IC50 in assay [1] was 154 nM; in assay [2], 2340 nM; in assay [3], 6.96 nM; in assay [4] it was 4890 nM; in assay [5], 142 nM; in assay [6] it was 9.84 nM.
